From patent US11478451B1, “Macrocyclic chlorine substituted indole derivatives” (Bayer Aktiengesellschaft, priority 2017, dated 2022) come the findings set out here.

For data set [1] the following is noted: the molecule shown is the open-chain precursor, crosslinker bond, 11-membered ring, MeCN, […].
The test system of data set [2] is SUDHL5 cells. Kind of data set: Induction of caspase-3/7 activity (Caspase-Glo 3/7), SUDHL5. The data set is classed as cell-based. Particulars: EC50, median, SUDHL5, 3 h treatment. The method, boiled down:
(§1)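 Caspase-3/7 activation serves as the apoptosis read-out for MCL-1 inhibition. Cells are treated with compound for 3 h at 37 °C and assayed with Caspase-Glo 3/7; values are corrected by subtracting medium-only background.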

For data set [3], the system named is SUDHL10 cells. Kind of data set: Induction of caspase-3/7 activity (Caspase-Glo 3/7), SUDHL10. Particulars: EC50, median, SUDHL10, 3 h treatment. The class given is cell-based. The method, boiled down: as §1
Data set [4] relates to SUDHL5 cells. Kind of data set: Antiproliferation assay (CellTiter-Glo, 72 h), SUDHL5. The data set is classed as cell-based. Particulars: IC50, median, SUDHL5, 72 h, read-out: Antiproli SUDHL5 [M] (median). An outline of the steps:
(§2)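 Cells plated in treatment plates plus a day 0 reference plate; incubated 72 h at 37 °C; CellTiter-Glo added, 10 min incubation, luminescence read; day 0 plate read at time zero.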
In general terms: In ATP-based viability assays light output follows the ATP content of the culture.

In another data set the test system is MV-4-11 cells. Kind of data set: Antiproliferation assay (CellTiter-Glo, 72 h), MV-4-11. The note with it: IC50, median, MV-4-11, 72 h, read-out: Antiproli MV-4-11 [M] median. The class given is cell-based. The method, then:
(§3) Assessment of the Anti-Proliferative Effect of Compounds in Different Cell Lines
(§4) The impact of compounds on the proliferation of different cell lines was assessed using the CellTiter-Glo® Luminescent Cell Viability reagent from Promega (G7573).
(§5) In parallel, cells were plated in a reference (day 0) plate for time zero determination.
(§6) Rim wells were excluded. The cells were incubated for 72 h hours in a humidified incubator at 37° C. The day 0 plate was measured by adding 30 μL/well of CTG solution (CellTiter-Glo® Luminescent Cell Viability reagent, Promega G7573) to time zero wells in the reference plate followed by a 10 minutes incubation and luminescence reading at 0.1 ms. using the PHERAstar FS microplate reader (BMG Labtech).
(§7) After 72 h incubation, the treated plates were measured in the same way as the day 0 plate mentioned above.

The test system of a further data set is SK-BR-3 cells. Kind of data set: Antiproliferation assay (CellTiter-Glo, 72 h), SK-BR-3. The data set is classed as cell-based. The note with it: IC50, median, SK-BR-3, 72 h, read-out: Antiproli SK-BR-3 [M] median. The method, then: as §3, §4, §5, §6, §7
Data set [5] relates to SUDHL5 cells. Kind of data set: Induction of cytotoxicity (CellTiter-Glo, 5 h), SUDHL5. The note with it: SUDHL5, 5 h.
The subject of data set [6] is SUDHL10 cells. Kind of data set: Induction of cytotoxicity (CellTiter-Glo, 5 h), SUDHL10. The note with it: SUDHL10, 5 h.
For a further data set, the system named is AMO-1 cells. Kind of data set: Antiproliferation assay (CellTiter-Glo, 72 h), AMO-1. The data set is classed as cell-based. Particulars: IC50, median, AMO-1, 72 h, read-out: Antiproli AMO-1 [M] median. The method, boiled down: as §2
In the next data set the test system is HMC-1-8 cells. Kind of data set: Antiproliferation assay (CellTiter-Glo, 72 h), HMC-1-8. The class given is cell-based. Particulars: IC50, median, HMC-1-8, 72 h, read-out: Antiproli HMC-1-8 [M] median. The method, boiled down: as §2
The next data set relates to A2058 cells. Kind of data set: Antiproliferation assay (CellTiter-Glo, 72 h), A2058. The data set is classed as cell-based. Particulars: A2058, 72 h, read-out: Antiproli A2058 [M] median. The method, then: as §3, §4, §5, §6, §7
The next data set has as its system NCI-H23 cells. Kind of data set: Antiproliferation assay (CellTiter-Glo, 72 h), NCI-H23. The class given is cell-based. Particulars: NCI-H23, 72 h, read-out: Antiproli NCI-H23 [M] median. The method, then: as §3, §4, §5, §6, §7
For data set [7], the system named is SUDHL10 cells. Kind of data set: Antiproliferation assay (CellTiter-Glo, 72 h), SUDHL10. The class given is cell-based. The note with it: IC50, median, SUDHL10, 72 h, read-out: Antiproli SUDHL10 [M] (median). The method, then: as §3, §4, §5, §6, §7
Another data set concerns T47D cells. Kind of data set: Antiproliferation assay (CellTiter-Glo, 72 h), T47D. The data set is classed as cell-based. The note with it: IC50, median, T47D (head printed T4713), read-out: Antiproli T4713 [M] median. The method, then:
as §3, §4, §5, §6, §7

The subject of a further data set is SNU-389 cells. Kind of data set: Antiproliferation assay (CellTiter-Glo, 72 h), SNU-389. The class given is cell-based. Particulars: IC50, median; SNU-389, 72 h; read-out: Antiproli SNU-389 [M] median. An outline of the steps:
as §2

Another data set has as its system DMS-114 cells. Kind of data set: Antiproliferation assay (CellTiter-Glo, 72 h), DMS-114. The class given is cell-based. The note with it: IC50, median; DMS-114, 72 h; read-out: Antiproli DMS-114 [M] median. The method, boiled down: as §2
The mark [8] stands for this setting: read-out: Cytotox SUDHL5 [M] (median), IC50, median.
Where [9] appears, read: Homo sapiens, SU-DHL10, 5 h, read-out: Cytotox SUDHL10 [M] (median), IC50, median.
[10] abbreviates: read-out: Cytotox SUDHL10 [M] (median), IC50, median.

SMILES strings stand for the structures. Structures can show the parent of a compound that is named as a salt. Where two headings read alike, the source gives them in different places.

In data set [1] ((Z)-1,4-dichlorobut-2-ene/Cs2CO3/NaI), `CCOC(=O)c1[nH]c2c(-c3c(CC)nn(C)c3CO)c(Cl)ccc2c1CCCOc1cccc2cc(F)ccc12` registered a ring closure, isolated yield of 84%.
Turning to `CCOC(=O)c1[nH]c2c(-c3c(CC)nn(CCN4CCOCC4)c3CNC)c(Cl)ccc2c1CCCOc1cccc2ccccc12`, in data set [1] ((Z)-1,4-dichlorobut-2-ene/Cs2CO3), the ring closure, isolated yield was determined as 45%.
For the compound `CCOC(=O)c1[nH]c2c(-c3c(CO)nn(C)c3C)c(Cl)ccc2c1CCCOc1cccc2ccccc12`, the ring closure, isolated yield in data set [1] ((Z)-1,4-dichlorobut-2-ene/Cs2CO3/NaI, 70.0 °C) amounted to 71%.
As to `CCc1nn(CCN2CCOCC2)c2c1-c1c(Cl)ccc3c(CCCOc4cccc5ccccc45)c(C(=O)O)n(c13)CCCCOC2` (racemic) [Example 8, (rac)-4-chloro-3-ethyl-1-[2-(morpholin-4-yl)ethyl]-7-[3-(naphthalen-1-yloxy)propyl]-1,10,11,12,13,15-hexahydropyrazolo[4′,3′:9,10][1,6]oxazacycloundecino[8,7,6-hi]indole-8-carboxylic acid], the EC50 (commonly the concentration that produces a half-maximal response) with SUDHL5 cells [2] came out at 290 nM; in the data set with SUDHL10 cells [3] (Homo sapiens, SU-DHL10, 3 h), 360 nM. Besides, the IC50 turned out to be 4.7e-07 M in the data set with SUDHL5 cells [4]; 1.1e-06 M in the data set with MV-4-11 cells; 3e-06 M in the data set on SK-BR-3 cells; 3.5e-07 M with SUDHL5 cells [5] (setting [8]); 4.5e-07 M in the data set with SUDHL10 cells [6] (setting [9]).
In the case of `Cc1c2c(nn1C)COCCCCn1c(C(=O)O)c(CCCOc3cccc4ccccc34)c3ccc(Cl)c-2c31` (racemic) [Example 25, (rac)-4-chloro-2,3-dimethyl-7-[3-(naphthalen-1-yloxy)propyl]-2,10,11,12,13,15-hexahydropyrazolo[4′,3′:9,10][1,6]oxazacycloundecino[8,7,6-hi]indole-8-carboxylic acid], the EC50 in the data set on SUDHL5 cells [2] (Homo sapiens, SU-DHL-5, 3 h) came out at 390 nM; in the data set on SUDHL10 cells [3] (Homo sapiens, SU-DHL10, 3 h), 1200 nM. Further, the IC50 in the data set on SUDHL5 cells [4] (Homo sapiens, SU-DHL-5, 72 h) amounted to 5.6e-07 M; in the data set on MV-4-11 cells (Homo sapiens, MV4-11, 72 h), 2.78e-06 M; in the data set with AMO-1 cells (Homo sapiens, AMO1, 72 h), 1.3e-06 M; in the data set with HMC-1-8 cells (72 h) it was 6.5e-06 M; in the data set on SK-BR-3 cells (Homo sapiens), 1.29e-05 M; in the data set with A2058 cells (Homo sapiens), 2.19e-05 M. In addition, the IC50 in the data set with NCI-H23 cells (Homo sapiens) came out at 6.01e-06 M; with SUDHL5 cells [5] (Homo sapiens, SU-DHL-5, 5 h, read-out: Cytotox SUDHL5 [M] (median), IC50, median) it was 5.3e-07 M; in the data set with SUDHL10 cells [6] (setting [9]), 9.3e-07 M.
Turning to `CCc1nn(CCN2CCOCC2)c2c1-c1c(Cl)ccc3c(CCCOc4cccc5ccccc45)c(C(=O)O)n(c13)CCCCOC2` (single isomer, unassigned; enantiomer 1) [Example 9, 4-chloro-3-ethyl-1-[2-(morpholin-4-yl)ethyl]-7-[3-(naphthalen-1-yloxy)propyl]-1,10,11,12,13,15-hexahydropyrazolo[4′,3′:9,10][1,6]oxazacycloundecino[8,7,6-hi]indole-8-carboxylic acid-N-ethylethanamine salt (Enantiomer 1)], the EC50 is 270 nM in the data set with SUDHL5 cells [2] and 330 nM in the data set with SUDHL10 cells [3]. In addition, the IC50 in the data set with SUDHL5 cells [4] was determined as 3.7e-07 M; with SUDHL10 cells [7] (Homo sapiens, SU-DHL10, 72 h) it was 2.7e-07 M; in the data set with MV-4-11 cells it was 8.23e-07 M; with AMO-1 cells, 8.7e-07 M; in the data set with SK-BR-3 cells, 1.08e-06 M; with SUDHL5 cells [5] (setting [8]), 2.9e-07 M. Moreover, the IC50 with SUDHL10 cells [6] (setting [10]) amounted to 3.4e-07 M.
As for `Cc1c2c(nn1C)COCCCCn1c(C(=O)O)c(CCCOc3cccc4cc(F)ccc34)c3ccc(Cl)c-2c31` (single isomer, unassigned; enantiomer 1) [Example 15, (+)-4-chloro-7-{3-[(6-fluoronaphthalen-1-yl)oxy]propyl}-2,3-dimethyl-2,10,11,12,13,15-hexahydropyrazolo[4′,3′:9,10][1,6]oxazacycloundecino[8,7,6-hi]indole-8-carboxylic acid-N-ethylethanamine salt (Enantiomer 1)], the EC50 in the data set on SUDHL5 cells [2] is 120 nM; in the data set with SUDHL10 cells [3], 150 nM. For the same compound, the IC50 worked out at 1.9e-07 M in the data set with SUDHL5 cells [4]; 2e-07 M with SUDHL10 cells [7]; 4.61e-07 M in the data set with MV-4-11 cells; 5.3e-07 M in the data set on AMO-1 cells; 1.4e-06 M with HMC-1-8 cells; 1.19e-05 M in the data set with T47D cells. In addition, the IC50 was 5.86e-06 M in the data set with A2058 cells (IC50, median); 9.28e-07 M in the data set with SNU-389 cells; 6.42e-07 M in the data set on DMS-114 cells; 1.4e-07 M in the data set with SUDHL5 cells [5] (setting [8]); 2.3e-07 M with SUDHL10 cells [6] (setting [10]).
`Cc1c2c(nn1C)COCCCCn1c(C(=O)O)c(CCCOc3cccc4ccccc34)c3ccc(Cl)c-2c31` (single isomer, unassigned; enantiomer 1) [Example 26, 4-chloro-2,3-dimethyl-7-[3-(naphthalen-1-yloxy)propyl]-2,10,11,12,13,15-hexahydropyrazolo-[4′,3′:9,10][1,6]oxazacycloundecino[8,7,6-hi]indole-8-carboxylic acid-N-ethylethanamine salt (Enantiomer 1)]: the results for the EC50 in the data set on SUDHL5 cells [2] and in the data set with SUDHL10 cells [3] were 250 nM and 410 nM, respectively. In addition, the IC50 was found to be 5.8e-07 M in the data set with SUDHL5 cells [4]; 1.81e-06 M in the data set on MV-4-11 cells; 1e-06 M with AMO-1 cells; 2.9e-06 M in the data set on HMC-1-8 cells; 3.3e-06 M in the data set on SK-BR-3 cells; 1.49e-05 M in the data set with A2058 cells (IC50, median). The IC50 in the data set with NCI-H23 cells (IC50, median) amounted to 2.32e-06 M; in the data set on SNU-389 cells, 1.66e-06 M; in the data set on DMS-114 cells, 1.76e-06 M; in the data set with SUDHL5 cells [5] (setting [8]), 4.6e-07 M; in the data set on SUDHL10 cells [6] (setting [10]) it was 5e-07 M.
